Experimental data reported in patent publication US6413972B1, “Nitrogen-containing heterocyclic compounds, their production and use” (Takeda Chemical Industries, Ltd., priority 1997, dated 2002).
Structures can show the parent of a compound that is named as a salt.

Target: T1, human GnRH receptor (Homo sapiens, UniProt P30968)
T1 construct: expressed in transfected cells; host or cells: CHO (Chinese hamster ovary) cells; membrane fraction
T1 sequence (P30968 1-328): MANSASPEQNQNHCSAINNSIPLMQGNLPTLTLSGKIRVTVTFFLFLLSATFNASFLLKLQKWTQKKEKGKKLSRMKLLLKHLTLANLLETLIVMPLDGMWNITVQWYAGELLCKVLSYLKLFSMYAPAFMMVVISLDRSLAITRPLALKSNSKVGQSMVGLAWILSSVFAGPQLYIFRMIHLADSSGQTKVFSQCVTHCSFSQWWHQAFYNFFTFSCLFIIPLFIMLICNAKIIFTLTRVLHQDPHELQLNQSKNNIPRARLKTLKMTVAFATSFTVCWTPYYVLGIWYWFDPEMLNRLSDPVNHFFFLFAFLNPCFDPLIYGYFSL
Test: 125I-leuprorelin binding inhibition on CHO cell membrane fraction containing human GnRH receptor
Settings: membrane fraction of human GnRH receptor-expressing CHO cells, 25° C. for 60 minutes, from a Hill plot
Experimental: To a tube containing 10 μl of a 3×10^−4 M aqueous solution of leuprorelin and 10 μl of 0.01 mg/ml lactoperoxidase, 10 μl (37 MBq) of a solution of Na^125I was added. After stirring, 10 μl of 0.001% H2O2 was added, and a reaction was carried out at about 15 to 25° C. for 20 minutes. By adding 700 μl of a 0.05% TFA (trifluoroacetic acid) solution, the reaction was stopped, followed by purification by reversed-phase HPLC. The HPLC conditions used are shown below. ^125I-leuprorelin was eluted at a retention time of 26 to 27 minutes. […]
The human membrane fraction prepared in paragraph (2) above was diluted with the assay buffer to yield a 200 μg/ml dilution, which was then dispensed at 188 μl per tube. […] To determine maximum binding quantity, a reaction mixture of 2 μl of 60% DMSO and 10 μl of 38 nM ^125I-leuprorelin was prepared. […]
After a reaction was carried out at 25° C. for 60 minutes, the reaction mixture was aspirated and filtered through a polyethyleneimine-treated Whatman glass filter (GF-F). After this filtration, the radioactivity of ^125I-leuprorelin remaining on the filter paper was measured, using a γ-counter.
The binding inhibition rate (%) for the subject compound (PMB) was calculated, using the equation: […]

| Structure (SMILES) | IC50 |
| --- | --- |
| CCNC(=O)Nc1ccc(-c2nc3n(Cc4c(F)cccc4F)cc(C(=O)OCC)c(=O)n3c2CN(C)Cc2ccccc2)cc1 [Example 15, 8-(2,6-difluorobenzyl)-5,8-dihydro-2-(4-ethylaminocarbonylaminophenyl)-3-(N-methyl-N-benzylaminomethyl)-5-oxoimidazo[1,2-a]pyrimidine-6-carboxylic acid ethyl ester] | 500 pM |

Test system: not given
Test: not given
Settings: not given

| Structure (SMILES) | melting point |
| --- | --- |
| Cc1c(-c2ccccc2)nc2n(Cc3c(F)cccc3F)cc(C(=O)CC(C)C)c(=O)n12 (as salt: hydrochloride) [Example 28, 8-(2,6-difluorobenzyl)-5,8-dihydro-2-phenyl-3-methyl-6-(3-methylbutyryl)-5-oxoimidazo[1,2-a]pyrimidine] | 158 to 166 °C |
| CCOC(=O)c1cnc2nc(-c3ccccc3)c(C)n2c1O [Example 1, 5-hydroxy-3-methyl-2-phenylimidazo[1,2-a]pyrimidine-6-carboxylic acid ethyl ester] | 220 to 225 °C |
| CCOC(=O)c1cn(Cc2c(F)cccc2F)c2nc(-c3ccc([N+](=O)[O-])cc3)c(C)n2c1=O [Example 5, 8-(2,6-difluorobenzyl)-5,8-dihydro-3-methyl-2-(4-nitrophenyl)-5-oxoimidazo[1,2-a]pyrimidine-6-carboxylic acid ethyl ester] | 219 to 221 °C |
| CCOC(=O)c1cn(Cc2c(F)cccc2F)c2nc(-c3ccc([N+](=O)[O-])cc3)c(CBr)n2c1=O [Example 7, 3-bromomethyl-8-(2,6-difluorobenzyl)-5,8-dihydro-2-(4-nitrophenyl)-5-oxoimidazo[1,2-a]pyrimidine-6-carboxylic acid ethyl ester] | 205 to 210 °C |
| CCOC(=O)c1cn(Cc2c(F)cccc2F)c2nc(-c3ccc([N+](=O)[O-])cc3)c(CN(C)Cc3ccccc3)n2c1=O [Example 9, 8-(2,6-difluorobenzyl)-5,8-dihydro-3-(N-methyl-N-benzylaminomethyl)-2-(4-nitrophenyl)-5-oxoimidazo[1,2-a]pyrimidine-6-carboxylic acid ethyl ester] | 187 to 189 °C |
| CCOC(=O)c1cn(Cc2c(F)cccc2F)c2nc(-c3ccc([N+](=O)[O-])cc3)c(CO)n2c1=O [Example 11, 8-(2,6-difluorobenzyl)-5,8-dihydro-3-(hydroxymethyl)-2-(4-nitrophenyl)-5-oxoimidazo[1,2-a]pyrimidine-6-carboxylic acid ethyl ester] | 230 to 232 °C |
| CCOC(=O)c1cn(Cc2c(F)cccc2F)c2nc(-c3ccc(N)cc3)c(CN(C)Cc3ccccc3)n2c1=O [Example 12, 2-(4-aminophenyl)-8-(2,6-difluorobenzyl)-5,8-dihydro-3-(N-methyl-N-benzylaminomethyl)-5-oxoimidazo[1,2-a]pyrimidine-6-carboxylic acid ethyl ester] | 161 to 166 °C |
| CCOC(=O)c1cn(Cc2c(F)cccc2F)c2nc(-c3ccc(NC(=O)C(C)C)cc3)c(CN(C)Cc3ccccc3)n2c1=O [Example 14, 8-(2,6-difluorobenzyl)-5,8-dihydro-2-(4-isobutyrylaminophenyl)-3-(N-methyl-N-benzylaminomethyl)-5-oxoimidazo[1,2-a]pyrimidine-6-carboxylic acid ethyl ester] | 98 to 103 °C |
| CCNC(=O)Nc1ccc(-c2nc3n(Cc4c(F)cccc4F)cc(C(=O)OCC)c(=O)n3c2CN(C)Cc2ccccc2)cc1 [Example 15, 8-(2,6-difluorobenzyl)-5,8-dihydro-2-(4-ethylaminocarbonylaminophenyl)-3-(N-methyl-N-benzylaminomethyl)-5-oxoimidazo[1,2-a]pyrimidine-6-carboxylic acid ethyl ester] | 191 to 196 °C |
| CC(=O)N(C(=O)OC(C)(C)C)c1ccc(-c2nc3n(Cc4c(F)cccc4F)c(C)c(Cc4ccccc4)c(=O)n3c2C)cc1 [Example 17, 8-(2,6-difluorobenzyl)-5,8-dihydro-2-(4-(N-Boc-N-acetylamino)phenyl)-3-methyl-6-benzyl-7-methyl-5-oxoimidazo[1,2-a]pyrimidine] | 176 to 177 °C |
| Cc1c(Cc2ccccc2)c(=O)n2c(CN(C)Cc3ccccc3)c(-c3ccc(NC(=O)OC(C)(C)C)cc3)nc2n1Cc1c(F)cccc1F [Example 19, 2-[4-(N-Boc-amino)phenyl]-8-(2,6-difluorobenzyl)-5,8-dihydro-3-(N-methyl-N-benzylaminomethyl)-6-benzyl-7-methyl-5-oxoimidazo[1,2-a]pyrimidine] | 179 to 184 °C |
| CON(C)C(=O)c1cn(Cc2c(F)cccc2F)c2nc(-c3ccc(N)cc3)c(CN(C)Cc3ccccc3)n2c1=O [Example 30, 8-(2,6-difluorobenzyl)-5,8-dihydro-2-(4-aminophenyl)-3-(N-methyl-N-benzylaminomethyl)-5-oxoimidazo[1,2-a]pyrimidine-6-(N-methyl-N-methoxy)carboxamide] | 89 to 91 °C |
| CN(Cc1ccccc1)Cc1c(-c2ccc(NC(=O)c3ccoc3)cc2)nc2n(Cc3c(F)cccc3F)cc(C(=O)c3ccccc3)c(=O)n12 [Example 31, 8-(2,6-difluorobenzyl)-5,8-dihydro-2-(3-furylcarbonylaminophenyl)-3-(N-methyl-N-benzylaminomethyl)-6-benzoyl-5-oxoimidazo [1,2-a]pyrimidine] | 172 to 174 °C |
| CCNC(=O)Nc1ccc(-c2nc3n(Cc4c(F)cccc4F)cc(C(=O)OC(C)C)c(=O)n3c2CN(C)Cc2ccccc2)cc1 [Example 34, 8-(2,6-difluorobenzyl)-5,8-dihydro-2-[4-(ethylaminocarbonylamino)phenyl]-3-(N-methyl-N-benzylaminomethyl)-5-oxoimidazo[1,2-a]pyrimidine-6-carboxylic acid isopropyl ester] | 198 to 200 °C |
